The values that follow come from ChEMBL document CHEMBL6087471, “A Collection of Novel Antitumor Agents That Regulate Lipid Metabolism in the Tumor Microenvironment” (J Med Chem, 2025).

A short description of assay [1]: Inhibition of ACC1 (unknown origin). The arrangement: species or system Homo sapiens.
For assay [2], the target named is T1, Diacylglycerol O-acyltransferase 2 (Homo sapiens, UniProt Q96PD7).
T1 sequence (Q96PD7 whole entry): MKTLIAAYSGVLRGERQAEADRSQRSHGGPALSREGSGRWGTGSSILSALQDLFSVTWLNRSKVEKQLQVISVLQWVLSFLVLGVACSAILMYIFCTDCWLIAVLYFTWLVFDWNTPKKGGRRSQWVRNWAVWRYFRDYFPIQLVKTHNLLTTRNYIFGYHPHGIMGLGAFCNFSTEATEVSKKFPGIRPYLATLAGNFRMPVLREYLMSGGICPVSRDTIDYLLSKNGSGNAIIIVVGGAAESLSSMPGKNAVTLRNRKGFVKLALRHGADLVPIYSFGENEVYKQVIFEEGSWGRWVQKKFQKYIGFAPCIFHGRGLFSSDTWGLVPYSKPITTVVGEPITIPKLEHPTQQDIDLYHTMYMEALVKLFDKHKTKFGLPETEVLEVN
Description: Inhibition of DGAT2 (unknown origin).

The nature of assay [3]: Inhibition of CPT1 (unknown origin). The arrangement: species or system Homo sapiens.
For assay [4], the system named is MCF7. Description: Antiproliferative activity against human MCF7 cells assessed as reduction in cell growth. Format: functional, cell-based.
For assay [5], the target named is T2, Bile acid receptor (Homo sapiens, UniProt Q96RI1).
T2 sequence (Q96RI1 whole entry): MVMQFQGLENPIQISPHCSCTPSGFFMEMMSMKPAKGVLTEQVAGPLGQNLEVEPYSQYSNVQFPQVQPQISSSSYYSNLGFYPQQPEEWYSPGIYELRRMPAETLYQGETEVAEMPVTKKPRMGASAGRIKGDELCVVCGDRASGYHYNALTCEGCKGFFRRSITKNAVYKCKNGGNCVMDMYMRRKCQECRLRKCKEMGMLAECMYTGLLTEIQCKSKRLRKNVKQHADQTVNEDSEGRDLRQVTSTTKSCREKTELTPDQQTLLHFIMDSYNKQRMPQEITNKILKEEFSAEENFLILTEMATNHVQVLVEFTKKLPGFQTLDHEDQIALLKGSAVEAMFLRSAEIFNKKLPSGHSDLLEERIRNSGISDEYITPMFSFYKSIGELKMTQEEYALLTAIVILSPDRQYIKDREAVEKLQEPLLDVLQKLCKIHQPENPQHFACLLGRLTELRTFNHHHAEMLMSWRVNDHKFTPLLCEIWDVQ
Description: Agonist activity at FXR (unknown origin).

Assay [6] concerns the target Autotaxin (Homo sapiens, UniProt Q13822).
Description: Inhibition of ATX (unknown origin)
The subject of assay [7] is PC-3. Description: Antiproliferative activity against human PC-3 cells. Format: functional, cell-based.
The test system of assay [8] is A549. Description: Antiproliferative activity against human A549 cells. The format is functional, cell-based.
The subject of assay [9] is SK-OV-3. Description: Antiproliferative activity against human SK-OV-3 cells. Format: functional, cell-based.
Assay [10] has as its target Platelet glycoprotein 4 (Homo sapiens, UniProt P16671). Description: Inhibition of N-terminal Flag-tagged human CD36.
The nature of assay [11]: Inhibition of rat CPT2.
Assay [12] is described as follows: Binding affinity to rat liver mitochondria CPT1 assessed as inhibition constant measured for 6 mins by Liquid scintillation counting method.

Sequence of Platelet glycoprotein 4 (P16671 whole entry): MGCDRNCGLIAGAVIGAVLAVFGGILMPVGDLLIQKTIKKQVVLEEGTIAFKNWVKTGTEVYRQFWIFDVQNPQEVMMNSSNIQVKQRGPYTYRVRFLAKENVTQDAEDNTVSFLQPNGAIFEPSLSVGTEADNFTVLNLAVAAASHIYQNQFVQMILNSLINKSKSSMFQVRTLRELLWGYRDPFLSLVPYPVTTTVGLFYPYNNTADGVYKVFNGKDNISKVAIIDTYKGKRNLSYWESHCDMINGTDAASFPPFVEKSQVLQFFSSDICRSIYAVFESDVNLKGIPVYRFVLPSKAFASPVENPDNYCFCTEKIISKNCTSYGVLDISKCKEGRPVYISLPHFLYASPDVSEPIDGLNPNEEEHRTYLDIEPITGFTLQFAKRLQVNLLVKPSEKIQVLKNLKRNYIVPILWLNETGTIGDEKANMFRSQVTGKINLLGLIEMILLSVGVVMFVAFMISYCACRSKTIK

For orientation: IC50 means the midpoint of a concentration-inhibition curve. With `O=C(c1c2ccccc2cc2ccccc12)N1CCN(C2CCN(C(=O)N3CCOCC3)CC2)CC1`, in [1], the IC50 worked out at 239 nM.

On to `CC(C)(C)OC(=O)NC1(C(=O)N[C@@H]2CC(=O)c3ccccc3N(Cc3cc(C(F)(F)F)cc(C(F)(F)F)c3)C2=O)CC1`, for which, in assay [2], the IC50 was above 75.5 nM.

As for `Cc1cc(C)c(-c2[nH]nc(C)c2C)cc1C(=O)N1CC(c2ccc(C#N)cc2)C1`, inhibition in assay [1] was half-maximal at 20 nM (IC50).

`COCc1nc(C(F)(F)F)[nH]c1-c1cc(C(=O)N2CC(c3ccc(C#N)cc3)C2)c(C)cc1C`: the IC50 in [1] is 40 nM.

Consider `CCCCCCOc1cccc(OCCCCNC(=O)N[C@@H](CC(=O)O)CN(C)C)c1`, for which the IC50 in [3] was found to be 44 nM.

Turning to `CCCCCCCCCCC[C@@H](C[C@@H]1OC(=O)[C@H]1CCCCCC)OC(=O)[C@H](CC(C)C)NC=O` [ORLISTAT], the IC50 in assay [4] came to 250 nM.

What is called EC50 is the concentration needed to bring the measured effect to its halfway point. A low value points to a more potent agent. For the compound `Cc1cc(-c2nc3ccc(C(=O)O)cc3n2C)ccc1OCc1c(-c2c(Cl)cccc2Cl)noc1C(C)C`, it took 13.4 nM to reach a half-maximal effect in [5] (EC50). That is a double-digit nanomolar value.

Consider `Cc1sc2ncnc(NC3CCN(Cc4ccccc4)C3)c2c1C` (stereo unspecified), for which the 50% inhibitory concentration (IC50) in [4] was 0.3 nM.

With `COC(=O)c1cc(Cl)c(O)c(S(=O)(=O)Nc2cc(-c3ccccc3)c(F)cc2F)c1`, the midpoint of inhibition in assay [3], the IC50, lay at 44 nM.

In the case of `COc1ccccc1[C@H](Cn1c(=O)n(C(C)(C)C(=O)O)c(=O)c2c(C)c(-c3ncco3)sc21)OC1CCOCC1` [FIRSOCOSTAT], half-maximal inhibition in [1] (IC50) required 2.1 nM.

As for `C=C1C(=O)O[C@H](CCCCCCCC)[C@H]1C(=O)O`, half-maximal inhibition in assay [1] (IC50) was put at 460 nM.

On to `CC(C)N(C(=O)n1nnn(-c2c(F)cccc2F)c1=O)c1ccc(C(=O)O)cc1Oc1ccccc1`, for which the IC50 in assay [4] is 19 nM.

As for `CCc1nc2c(C)cc(-c3ccc(CN(CCO)CCO)cc3)cn2c1NC(=O)NCc1ccc(Cl)cc1`, in [6], half-maximal inhibition (IC50) was put at 3.98 nM.

In assay [1], `COc1cc(C(=O)N2CCC3(CC2)CC(=O)c2cc(-c4cncc(C(=O)O)c4)ccc2O3)cc2c1c(C)cn2C1CC1` yielded an IC50 of 3 nM.

Compound `O=C(NC1(C(=O)N[C@@H]2CC(=O)c3ccccc3N(Cc3cc(C(F)(F)F)cc(C(F)(F)F)c3)C2=O)CC1)c1ccc(F)cc1` registered a half-maximal inhibitory concentration (IC50) in assay [2] above 75.5 nM.

In [1], `CC(=O)N1CCC(C(=O)N2CCC(N3CCN(C(=O)c4cc(-c5ccc(C)cc5)nc(-c5ccc(C)cc5)c4)CC3)CC2)CC1` came in with an IC50 of 76 nM.

In turn, `O=C1Nc2ccccc2-c2cc(c(F)cc2F)NS(=O)(=O)c2cc1cc(Cl)c2O` returned an IC50 in [3] of 69.7 nM.

In assay [1], `Cc1nc(-c2cc(C(=O)N3CCC(c4ccc(C#N)cc4)CC3)c(C)cc2C2CCC2)n[nH]1` gave a half-inhibitory concentration (IC50) of 40 nM.

As for `CCOC(=O)c1sc2c(c1C)c(=O)n(CCO)c(=O)n2CCc1ccccc1`, half-maximal inhibition in assay [1] (IC50) was put at 3.9 nM.

In the case of `COc1ccc(CN2CCN(CCCSc3cc(C(C)(C)C)c(O)c(C(C)(C)C)c3)CC2)c(OC)c1OC`, the midpoint of inhibition in assay [3], the IC50, lay at 50800 nM.

Regarding `CC(C)(CCCCCC(O)CCCCCC(C)(C)C(=O)O)C(=O)O` [BEMPEDOIC ACID], the values for the concentration for half-maximal inhibition (IC50) in assay [7], in [8] and in [9] were 26000 nM, 24000 nM and 53000 nM, respectively.

Take `C[C@H](CCC(=O)O)[C@H]1CC[C@H]2[C@@H]3[C@@H](O)C[C@@H]4C[C@H](O)CC[C@]4(C)[C@H]3CC[C@]12C` [URSODIOL]: the half-inhibitory concentration (IC50) in assay [6] was found to be 2800 nM.

`COc1ccc(-c2ccccc2)cc1NS(=O)(=O)c1cc(Cl)cc(Cl)c1O` yielded an IC50 in assay [3] of 130 nM.

Compound `O=C(c1c2ccccc2cc2ccccc12)N1CCC(N2CCC[C@@H](C(=O)N3CCOCC3)C2)CC1` returned an IC50 in assay [1] of 116 nM.

`CCCCCCCCCCCCCC(=O)Nc1ccc(CP(=O)(O)O)cc1` came in with a half-inhibitory concentration (IC50) in assay [6] of 5.6 nM.

With `COc1ccc(CN2CCNCC2)c(OC)c1OC` [TRIMETAZIDINE], in [3], the midpoint of inhibition, the IC50, lay at 759000 nM.

`CCCCCCCC/C=C\CCCCCCCC(=O)ON1C(=O)CC(S(=O)(=O)O)C1=O` (stereo unspecified) displayed a 50% inhibitory concentration (IC50) in assay [10] of 4000 nM.

Consider `CCCCCCCCCCCCCCNC(=O)N[C@H](CC(=O)[O-])C[N+](C)(C)C`, for which the midpoint of inhibition in [11], the IC50, lay at 240 nM.

As usually defined, the Ki is a dissociation constant, usually derived from enzyme kinetics or from competition with a known ligand. Turning to `CCCCCCCCCCCCCCC[C@@]1(O)C[N+](C)(C)C[C@@H](CC(=O)[O-])O1`, the Ki in [12] turned out to be 4200 nM.
